Experimental data taken from ChEMBL document CHEMBL3259804, “Syk inhibitors with high potency in presence of blood” (Bioorg Med Chem Lett, 2014).

Tests used:
Bone marrow cell = experiment: Inhibition of IL3 dependent proliferation in […] mouse bone marrow cells using [3H]thymidine by liquid scintillation counting; type: functional, cell-based
[1] = molecular target: T1, Tyrosine-protein kinase SYK (Homo sapiens, UniProt P43405); experiment: Inhibition of Syk (unknown origin) using 4 uM peptide assessed as product formation after 60 mins incubation by microfluidic mobility shift assay
[2] = molecular target: T1, Tyrosine-protein kinase SYK; experiment: Inhibition of Syk in anti IgM-stimulated human Ramos cells assessed as BLNK phosphorylation by cellular assay
[3] = molecular target: T2, Tyrosine-protein kinase ZAP-70 (Homo sapiens, UniProt P43403); experiment: Inhibition of ZAP70 (unknown origin)
T2 sequence (P43403 whole entry): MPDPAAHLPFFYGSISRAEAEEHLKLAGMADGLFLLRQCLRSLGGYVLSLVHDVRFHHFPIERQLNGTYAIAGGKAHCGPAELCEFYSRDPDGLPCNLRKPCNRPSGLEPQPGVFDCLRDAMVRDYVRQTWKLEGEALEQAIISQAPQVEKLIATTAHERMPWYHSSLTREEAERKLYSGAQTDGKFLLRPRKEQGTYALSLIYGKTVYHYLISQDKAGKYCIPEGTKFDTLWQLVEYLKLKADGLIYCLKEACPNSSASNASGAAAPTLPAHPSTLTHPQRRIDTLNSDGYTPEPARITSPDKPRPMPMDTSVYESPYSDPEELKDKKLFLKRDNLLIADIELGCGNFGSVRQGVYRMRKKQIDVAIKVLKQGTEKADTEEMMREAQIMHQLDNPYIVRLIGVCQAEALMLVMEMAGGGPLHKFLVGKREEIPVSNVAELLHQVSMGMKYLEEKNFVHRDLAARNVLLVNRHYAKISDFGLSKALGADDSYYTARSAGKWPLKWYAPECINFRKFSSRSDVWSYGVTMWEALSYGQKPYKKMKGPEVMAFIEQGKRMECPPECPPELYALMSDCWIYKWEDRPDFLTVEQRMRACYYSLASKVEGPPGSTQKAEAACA

Rattus norvegicus [4] = experiment: Dose normalized AUC in Sprague-Dawley rat at 1 mg/kg, iv; type: ADME, organism-based; set-up: dose 1 mg/kg, route intravenous; settings: in vivo
[5] = Clearance in Sprague-Dawley rat at 1 mg/kg, iv and 3 mg/kg, po; type: ADME, organism-based; settings: in vivo
Liver = experiment: Half life in rat liver S9 fraction assessed as conversion into 5-(1H-indol-7-ylamino)-7-((1R,2S)-2-aminocyclohexylamino)pyrido[4,3-d]pyrimidine-2,4(1H,3H)-dione; type: ADME, subcellular
[6] = Plasma bioavailability in Sprague-Dawley rat at 1 mg/kg, iv and 3 mg/kg, po; type: ADME, organism-based
[7] = Half life in rat liver S9 fraction assessed as conversion into 5-(1H-indol-7-ylamino)-7-((1R,2S)-2-aminocyclohexylamino)pyrido[4,3-d]pyrimidine-2,4(1H,3H)-dione in presence of NADPH; type: ADME, subcellular
[8] = Volume of distribution at steady state in Sprague-Dawley rat at 1 mg/kg, iv and 3 mg/kg, po; type: ADME, organism-based; settings: in vivo, read-out: Vdss
Liver microsome = experiment: (§1) Half life in rat liver microsomes; type: ADME; settings: microsomes
Rattus norvegicus [9] = experiment: Dose normalized AUC in Sprague-Dawley rat at 3 mg/kg, po; type: ADME, organism-based; set-up: dose 3 mg/kg, route oral; settings: in vivo
Rattus norvegicus [10] = experiment: Cmax/dose in Sprague-Dawley rat at 1 mg/kg, iv and 3 mg/kg, po; type: ADME, organism-based; settings: in vivo
[11] = Half life in dog liver S9 fraction; type: ADME, subcellular, Canis lupus familiaris
[12] = Terminal half life Sprague-Dawley rat at 1 mg/kg, iv and 3 mg/kg, po; type: ADME, organism-based; settings: in vivo, read-out: beta t1/2 (converted)
[13] = Apparent permeability from basolateral to apical side in human Caco2 cells; type: ADME, cell-based; settings: Caco-2
[14] = Drug metabolism in pig liver microsomes assessed as conversion into 5-(1H-indol-7-ylamino)-7-((1R,2S)-2-aminocyclohexylamino)pyrido[4,3-d]pyrimidine-2,4(1H,3H)-dione by NMR; type: ADME, Sus scrofa
[15] = Apparent permeability from apical to basolateral side in human Caco2 cells; type: ADME, cell-based; settings: Caco-2
[16] = molecular target: Tyrosine-protein kinase JAK2 (Homo sapiens, UniProt O60674); experiment: Inhibition of JAK2 (unknown origin)
[17] = as §1; type: ADME; settings: liver microsomes
[18] = molecular target: Voltage-gated inwardly rectifying potassium channel KCNH2 (Homo sapiens, UniProt Q12809); experiment: Inhibition of human ERG by Q-patch assay
[19] = molecular target: T1, Tyrosine-protein kinase SYK; experiment: Inhibition of Syk in human whole blood assessed as inhibition of P-SLP76 in CD14+ monocytes by flow cytometry
[20] = molecular target: Tyrosine-protein kinase Lyn (Homo sapiens, UniProt P07948); experiment: Inhibition of Lyn (unknown origin)
Chain of Tyrosine-protein kinase Lyn (P07948 whole entry): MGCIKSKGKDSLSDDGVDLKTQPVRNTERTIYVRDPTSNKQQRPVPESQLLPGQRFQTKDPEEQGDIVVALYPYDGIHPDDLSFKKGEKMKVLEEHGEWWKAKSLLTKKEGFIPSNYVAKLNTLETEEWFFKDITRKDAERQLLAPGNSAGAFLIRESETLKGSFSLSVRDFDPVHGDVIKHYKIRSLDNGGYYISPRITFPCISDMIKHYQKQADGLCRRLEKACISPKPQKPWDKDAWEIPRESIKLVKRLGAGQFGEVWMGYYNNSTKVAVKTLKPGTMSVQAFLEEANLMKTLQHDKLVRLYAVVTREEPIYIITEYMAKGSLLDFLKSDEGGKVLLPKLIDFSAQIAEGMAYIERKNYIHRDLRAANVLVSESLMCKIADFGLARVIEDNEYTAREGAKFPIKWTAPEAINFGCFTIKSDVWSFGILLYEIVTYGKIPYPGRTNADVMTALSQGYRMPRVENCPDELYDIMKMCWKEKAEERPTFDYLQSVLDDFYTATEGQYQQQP

Chain of Voltage-gated inwardly rectifying potassium channel KCNH2 (Q12809 whole entry): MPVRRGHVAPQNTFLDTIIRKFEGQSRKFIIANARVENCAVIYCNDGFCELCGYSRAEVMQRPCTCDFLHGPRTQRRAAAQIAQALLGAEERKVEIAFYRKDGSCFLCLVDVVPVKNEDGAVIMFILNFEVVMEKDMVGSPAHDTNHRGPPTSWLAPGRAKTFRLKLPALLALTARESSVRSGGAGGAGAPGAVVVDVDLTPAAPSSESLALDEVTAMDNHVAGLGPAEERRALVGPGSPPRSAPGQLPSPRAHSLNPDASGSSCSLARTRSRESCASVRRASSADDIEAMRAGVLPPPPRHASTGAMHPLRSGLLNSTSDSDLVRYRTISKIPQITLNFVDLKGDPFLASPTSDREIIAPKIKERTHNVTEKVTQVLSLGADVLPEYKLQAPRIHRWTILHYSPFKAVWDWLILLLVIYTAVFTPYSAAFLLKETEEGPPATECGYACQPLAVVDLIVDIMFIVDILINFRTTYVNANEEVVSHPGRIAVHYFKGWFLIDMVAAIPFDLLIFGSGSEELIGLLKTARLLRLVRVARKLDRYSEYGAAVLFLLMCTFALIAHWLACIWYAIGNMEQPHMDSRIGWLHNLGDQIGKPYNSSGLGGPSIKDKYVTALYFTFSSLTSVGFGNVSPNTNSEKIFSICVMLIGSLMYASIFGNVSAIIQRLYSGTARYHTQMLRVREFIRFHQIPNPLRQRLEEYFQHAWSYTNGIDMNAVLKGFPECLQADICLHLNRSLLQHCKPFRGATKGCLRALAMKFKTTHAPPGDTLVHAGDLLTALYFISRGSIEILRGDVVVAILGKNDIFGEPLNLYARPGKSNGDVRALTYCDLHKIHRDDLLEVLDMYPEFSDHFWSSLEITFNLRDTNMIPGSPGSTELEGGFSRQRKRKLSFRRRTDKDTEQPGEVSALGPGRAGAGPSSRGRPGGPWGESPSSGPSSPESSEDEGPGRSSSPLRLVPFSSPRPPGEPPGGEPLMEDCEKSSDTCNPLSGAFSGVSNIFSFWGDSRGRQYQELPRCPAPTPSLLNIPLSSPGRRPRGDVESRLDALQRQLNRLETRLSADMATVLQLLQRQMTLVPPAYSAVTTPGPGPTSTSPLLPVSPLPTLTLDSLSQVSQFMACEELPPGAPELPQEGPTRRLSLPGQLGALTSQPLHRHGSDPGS
Chain of Tyrosine-protein kinase JAK2 (O60674 whole entry): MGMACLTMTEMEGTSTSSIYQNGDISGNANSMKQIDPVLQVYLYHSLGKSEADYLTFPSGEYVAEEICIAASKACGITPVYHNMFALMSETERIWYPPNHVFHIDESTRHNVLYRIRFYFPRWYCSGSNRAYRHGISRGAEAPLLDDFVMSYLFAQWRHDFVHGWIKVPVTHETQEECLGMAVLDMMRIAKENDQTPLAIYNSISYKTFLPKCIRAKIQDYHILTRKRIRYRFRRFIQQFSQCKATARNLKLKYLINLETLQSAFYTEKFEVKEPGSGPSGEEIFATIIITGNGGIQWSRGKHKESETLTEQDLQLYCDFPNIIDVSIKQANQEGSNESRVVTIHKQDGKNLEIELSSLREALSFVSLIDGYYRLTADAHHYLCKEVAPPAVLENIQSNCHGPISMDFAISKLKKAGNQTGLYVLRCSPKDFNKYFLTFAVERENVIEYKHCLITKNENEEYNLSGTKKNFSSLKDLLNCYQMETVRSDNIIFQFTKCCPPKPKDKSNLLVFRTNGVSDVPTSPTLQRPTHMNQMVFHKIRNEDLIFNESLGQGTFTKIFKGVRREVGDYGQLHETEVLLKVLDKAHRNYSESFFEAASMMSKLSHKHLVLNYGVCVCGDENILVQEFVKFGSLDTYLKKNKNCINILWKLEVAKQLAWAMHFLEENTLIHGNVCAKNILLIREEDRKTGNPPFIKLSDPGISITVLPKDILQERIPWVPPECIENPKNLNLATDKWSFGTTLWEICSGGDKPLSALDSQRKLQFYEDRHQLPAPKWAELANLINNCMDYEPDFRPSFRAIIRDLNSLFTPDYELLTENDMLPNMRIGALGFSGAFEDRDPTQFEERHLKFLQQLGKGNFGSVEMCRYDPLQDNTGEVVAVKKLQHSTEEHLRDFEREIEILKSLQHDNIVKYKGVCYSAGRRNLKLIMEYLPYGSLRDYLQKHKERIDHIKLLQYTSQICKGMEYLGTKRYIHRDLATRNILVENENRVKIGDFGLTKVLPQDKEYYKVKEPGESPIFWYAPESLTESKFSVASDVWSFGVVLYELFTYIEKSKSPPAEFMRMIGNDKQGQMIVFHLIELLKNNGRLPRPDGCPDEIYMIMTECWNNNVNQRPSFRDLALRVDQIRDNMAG

Row | SMILES | IC50 [1] | IC50 [2] | IC50 [3] | IC50 [16] | half-life [17] | IC50 [19] | IC50 [20] | IC50 (Bone marrow cell) | further results
1 | NC(=O)c1cnc(N[C@@H]2CCCC[C@@H]2N)nc1Nc1cccc(-n2nccn2)c1 | – | – | – | – | – | – | – | 5850 nM | –
2 | N[C@H]1CCCC[C@H]1Nc1cc2nc[nH]c(=O)c2c(Nc2cccc3cc[nH]c23)n1 | – | – | – | – | – | – | – | – | AUC/dose (Rattus norvegicus [4]): 629 nM·h; clearance [5]: 69 mL/min/kg; t1/2 (Liver): < 5 min; bioavailability [6]: 1%; t1/2 [7]: < 5 min; Vd [8]: 31 L/kg; t1/2 (Liver microsome): 22 min; AUC/dose (Rattus norvegicus [9]): 9 nM·h; Cmax/dose (Rattus norvegicus [10]): 1 nM; half-life [11]: > 120 min; half-life [12]: 660 min; Papp B→A [13]: 15.2 ×10⁻⁶ cm/s; Drug metabolism [14]: metabolite_detected; Papp A→B [15]: 9.5 ×10⁻⁶ cm/s
3 | Cc1c[nH]c2c(Nc3nc(N[C@@H]4CCCC[C@@H]4N)cc4nc[nH]c(=O)c34)cccc12 | 2 nM | 47 nM | 33 nM | 190 nM | 25 min | 805 nM | 44 nM | 3800 nM | AUC/dose (Rattus norvegicus [4]): 1109 nM·h; clearance [5]: 39 mL/min/kg; bioavailability [6]: 4%; Vd [8]: 19 L/kg; IC50 [18]: > 30000 nM; AUC/dose (Rattus norvegicus [9]): 40 nM·h; Cmax/dose (Rattus norvegicus [10]): 4 nM; half-life [12]: 780 min; Papp B→A [13]: 9.6 ×10⁻⁶ cm/s; Papp A→B [15]: 9.5 ×10⁻⁶ cm/s
4 | Cn1ccc2cccc(Nc3nc(N[C@@H]4CCCC[C@@H]4N)cc4nc[nH]c(=O)c34)c21 | 1600 nM | 9270 nM | > 10000 nM | > 10000 nM | 9 min | – | > 10000 nM | > 10000 nM | –
5 | N[C@H]1CCCC[C@H]1Nc1cc2nc[nH]c(=O)c2c(Nc2cccc3[nH]ccc23)n1 | 1 nM | 35 nM | 14 nM | 83 nM | 17 min | 322 nM | 32 nM | 4140 nM | –
6 | N[C@H]1COCC[C@H]1Nc1cc2nc[nH]c(=O)c2c(Nc2cccc3cc[nH]c23)n1 | 20 nM | 60 nM | 375 nM | 290 nM | 14 min | 232 nM | 230 nM | 7470 nM | –
7 | Cc1nc2cc(N[C@@H]3CCCC[C@@H]3N)nc(Nc3cccc4c(C)c[nH]c34)c2c(=O)[nH]1 | 480 nM | – | > 10000 nM | > 10000 nM | 59 min | – | > 10000 nM | – | t1/2 (Liver): > 120 min; t1/2 [7]: > 120 min
8 | Cn1cc2c(Nc3nc(N[C@@H]4CCOC[C@@H]4N)cc4cc[nH]c(=O)c34)cccc2n1 | 1 nM | 78 nM | 18 nM | – | 22 min | 376 nM | 190 nM | 1440 nM | t1/2 (Liver): > 120 min; t1/2 [7]: > 120 min; IC50 [18]: > 30000 nM
9 | Cc1c[nH]c2c(Nc3nc(N[C@@H]4CCCC[C@@H]4N)cc4cc[nH]c(=O)c34)cccc12 | 3 nM | 95 nM | 81 nM | 300 nM | 27 min | 430 nM | 550 nM | 4940 nM | –
10 | COc1cc(Nc2ncc(F)c(Nc3ccc4c(n3)NC(=O)C(C)(C)O4)n2)cc(OC)c1OC [R-406] | – | – | – | – | – | – | – | 147 nM | –

More lines, main results first:

Row | IC50 [1] | IC50 [2] | IC50 [3] | IC50 [16] | half-life [17] | IC50 [19] | IC50 [20] | SMILES | IC50 (Bone marrow cell) | further results
11 | 5 nM | 778 nM | 74 nM | – | – | – | – | N[C@H]1CCCC[C@H]1Nc1cc2nc[nH]c(=O)c2c(Nc2cccc(-n3nccn3)c2)n1 | 249 nM | –
12 | 34 nM | 320 nM | 815 nM | 1810 nM | 19 min | – | 1000 nM | N[C@H]1CCCC[C@H]1Nc1cc2nc[nH]c(=O)c2c(Nc2cccc3c(Cl)c[nH]c23)n1 | 6660 nM | IC50 [18]: 20000 nM
13 | 21 nM | 209 nM | 445 nM | 980 nM | 10 min | 1010 nM | 84 nM | C[C@H](N)CNc1cc2nc[nH]c(=O)c2c(Nc2cccc3cc[nH]c23)n1 | > 10000 nM | –
14 | 165 nM | 378 nM | 3000 nM | 950 nM | – | 1990 nM | 315 nM | O=c1[nH]cnc2cc(N[C@@H]3CCCNC3)nc(Nc3cccc4cc[nH]c34)c12 | – | –
15 | 1 nM | 37 nM | 47 nM | 184 nM | 20 min | 299 nM | 69 nM | Cc1c[nH]c2c(Nc3nc(N[C@@H]4CCOC[C@@H]4N)cc4nc[nH]c(=O)c34)cccc12 | 5980 nM | AUC/dose (Rattus norvegicus [4]): 401 nM·h; clearance [5]: 112 mL/min/kg; bioavailability [6]: 2%; Vd [8]: 12 L/kg; IC50 [18]: > 30000 nM; AUC/dose (Rattus norvegicus [9]): 9 nM·h; Cmax/dose (Rattus norvegicus [10]): 2 nM; half-life [12]: 198 min
16 | 4 nM | 283 nM | 350 nM | 1230 nM | 9 min | – | 1800 nM | N[C@H]1CCCC[C@H]1Nc1cc2cc[nH]c(=O)c2c(Nc2cccc3c(Cl)c[nH]c23)n1 | – | t1/2 (Liver): > 120 min; t1/2 [7]: > 120 min
17 | 1900 nM | – | – | – | – | – | – | N[C@H]1CCCC[C@H]1Nc1cc2[nH]c(=O)[nH]c(=O)c2c(Nc2cccc3cc[nH]c23)n1 | – | –
